System: CT26 cells
Assay: Cell death type by FITC-annexin V and PI staining
Format: cell-based
Settings: 5 μM VPF, 2 hours, ultrasound 5 minutes
Description: CT26 colorectal cells were cultured in an RPMI 1640 medium containing 10% fetal bovine serum (FBS) and 1% antibiotic-antimycotic. 5×10^6 of CT26 cells were treated with Ox@PEG-VPF and the controls for 2 hours based on 5 μM VPF, and then resuspended in 1 ml of the RPMI 1640 medium, followed by ultrasound treatment for 5 minutes.
After 100 μl of the CT26 cell suspension that had been treated with ultrasound was resuspended in 900 μl of the FITC-annexin V/PI mixed solution and maintained for 30 minutes, the resulting cells were washed twice with PBS and observed by confocal microscopy.
Specifically, the Ox@ PEG-VPF of the present invention reacted with a high concentration of ROS present in cancer cells to produce CO2 in the cells, and was treated with a FITC-labeled annexin compound (FITC-annexin V; excitation/emission wavelength—490/525 nm) and propidium iodide (PI; excitation/emission wavelength 535/617 nm) to confirm whether ICD occurs by the cavitation effect and cell membrane rupture caused by ultrasound.

With verteporfin [VPF] the “cell death type (FITC-annexin V / PI staining)” value was “induced the apoptosis of cancer cells”.

— US20220370609A1, “Polymer complex for anticancer immune therapy based on ultrasound comprising oxalate derivatives and Method of preparation thereof” (RESEARCH & BUSINESS FOUNDATION SUNGKYUNKWAN UNIVERSITY, priority 2021, published 2022)
